Reference: ChEMBL document CHEMBL1201862, “PubChem BioAssay data set” (2004)
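Tested at 5 concentrations; 48 h exposure; 96-well plates; endpoints linearly interpolated, else capped at highest concentration. GI50 = concentration required for 50% inhibition of growth.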 Calls of active or inactive are those of the source. Rule as the data show it: active = GI50 up to about 1.1 µM and inactive = higher.

How the values were obtained:
Assay in all cases: NCI anticancer screen, dose series, 48 h
CAKI-1 = tested on: CAKI-1
HCC 2998 = tested on: HCC 2998
HCT-116 = tested on: HCT-116
LOX IMVI = tested on: LOX IMVI
LXFL 529 = tested on: LXFL 529
M14 = tested on: M14
MOLT-4 = tested on: MOLT-4
NCI-H23 = tested on: NCI-H23
NCI-H460 = tested on: NCI-H460
OVCAR-4 = tested on: OVCAR-4
SF-295 = tested on: SF-295
SK-MEL-28 = tested on: SK-MEL-28
SK-OV-3 = tested on: SK-OV-3
SN12C = tested on: SN12C
SW-620 = tested on: SW-620
U-251 = tested on: U-251
SF-539 = tested on: SF-539
MDA-MB-435 = tested on: MDA-MB-435
MDA-N = tested on: MDA-N
T47D = tested on: T47D

Structure (SMILES)	GI50 (CAKI-1)	GI50 (HCC 2998)	GI50 (HCT-116)	GI50 (LOX IMVI)	GI50 (LXFL 529)	GI50 (M14)	GI50 (MOLT-4)	GI50 (NCI-H23)	GI50 (NCI-H460)	GI50 (OVCAR-4)	GI50 (SF-295)	GI50 (SK-MEL-28)	GI50 (SK-OV-3)	GI50 (SN12C)	GI50 (SW-620)	GI50 (U-251)	GI50 (SF-539)	GI50 (MDA-MB-435)	GI50 (MDA-N)	GI50 (T47D)
O=C1[C@H](Cl)[C@H]2c3cc4ccccc4nc3Oc3ccccc3N12	38.7 µM (inactive)	39.4 µM (inactive)	17.2 µM (inactive)	36.7 µM (inactive)	34 µM (inactive)	76.9 µM (inactive)	27.7 µM (inactive)	35.1 µM (inactive)	53.7 µM (inactive)	45.5 µM (inactive)	21.8 µM (inactive)	33 µM (inactive)	45.5 µM (inactive)	43.4 µM (inactive)	> 100 µM (inactive)	30.9 µM (inactive)				
CCN(CC)C(=O)C/C(C)=N/NC(=O)c1ccncc1		> 100 µM (inactive)	> 100 µM (inactive)	> 100 µM (inactive)	> 100 µM (inactive)	> 100 µM (inactive)	> 100 µM (inactive)	> 100 µM (inactive)	> 100 µM (inactive)		> 100 µM (inactive)	> 100 µM (inactive)	> 100 µM (inactive)		> 100 µM (inactive)	> 100 µM (inactive)	> 100 µM (inactive)			
O=[N+]([O-])[C@@H]1C2C=CC(C2)[C@H]1Cl (some centres undefined)	> 100 µM (inactive)		> 100 µM (inactive)	> 100 µM (inactive)	> 100 µM (inactive)	> 100 µM (inactive)	> 100 µM (inactive)	> 100 µM (inactive)	> 100 µM (inactive)	> 100 µM (inactive)	> 100 µM (inactive)	> 100 µM (inactive)	> 100 µM (inactive)	> 100 µM (inactive)	> 100 µM (inactive)	> 100 µM (inactive)	> 100 µM (inactive)			
c1ccc2c(c1)OCCOCCOc1ccccc1OCCO2	78 µM (inactive)		40.5 µM (inactive)	51.9 µM (inactive)	68.5 µM (inactive)	44.9 µM (inactive)	47.5 µM (inactive)	> 100 µM (inactive)	36.3 µM (inactive)	39.3 µM (inactive)	62.4 µM (inactive)	> 100 µM (inactive)	> 100 µM (inactive)	76 µM (inactive)	26.9 µM (inactive)	34.4 µM (inactive)	> 100 µM (inactive)			
CCC(/C=C/c1ccccc1)=N\NC(=S)N/N=C(/C=C/c1ccccc1)CC	> 100 µM (inactive)	84.1 µM (inactive)	19 µM (inactive)	21.3 µM (inactive)		46.1 µM (inactive)	5.51 µM (inactive)	84.3 µM (inactive)	13.2 µM (inactive)	35.2 µM (inactive)	87.7 µM (inactive)	> 100 µM (inactive)	20.1 µM (inactive)	36.6 µM (inactive)	> 100 µM (inactive)	18.1 µM (inactive)	31.5 µM (inactive)	46.5 µM (inactive)	58.1 µM (inactive)	35.9 µM (inactive)
CCCCC(=C=C(C)CO)C1CCCN1C(=O)OC(C)(C)C (centres undefined)	21.8 µM (inactive)	8.02 µM (inactive)	15.6 µM (inactive)	16.8 µM (inactive)		18.5 µM (inactive)	12.3 µM (inactive)	19 µM (inactive)	16.1 µM (inactive)	17.3 µM (inactive)	16.3 µM (inactive)	18.4 µM (inactive)	24.5 µM (inactive)	17.3 µM (inactive)	29.2 µM (inactive)	17.1 µM (inactive)	16.9 µM (inactive)	18.8 µM (inactive)	17.6 µM (inactive)	22.5 µM (inactive)
COCC1OC(S(=O)(=O)c2ccccc2)C(O)C(OC)C1OC (centres undefined)	> 100 µM (inactive)	> 100 µM (inactive)	> 100 µM (inactive)	> 100 µM (inactive)		> 100 µM (inactive)	> 100 µM (inactive)	> 100 µM (inactive)	> 100 µM (inactive)	> 100 µM (inactive)	> 100 µM (inactive)	> 100 µM (inactive)	> 100 µM (inactive)	> 100 µM (inactive)	> 100 µM (inactive)	> 100 µM (inactive)	> 100 µM (inactive)	> 100 µM (inactive)	> 100 µM (inactive)	> 100 µM (inactive)
O=C(O)c1c2c(c(C(=O)O)c3ccccc13)-c1ccccc1-2		37.1 µM (inactive)	78.9 µM (inactive)	38.4 µM (inactive)	39.8 µM (inactive)	47.5 µM (inactive)	39.5 µM (inactive)	39.8 µM (inactive)			33.6 µM (inactive)	20.3 µM (inactive)	27.8 µM (inactive)	35.1 µM (inactive)	36.8 µM (inactive)	35.6 µM (inactive)	28.7 µM (inactive)			
COc1nc(NC2OCC(OC(C)=O)C(OC(C)=O)C2OC(C)=O)c(-c2csc(N)n2)c(=O)n1C (centres undefined)	> 100 µM (inactive)		> 100 µM (inactive)	> 100 µM (inactive)	> 100 µM (inactive)	> 100 µM (inactive)	> 100 µM (inactive)	> 100 µM (inactive)	> 100 µM (inactive)	> 100 µM (inactive)	> 100 µM (inactive)	> 100 µM (inactive)	> 100 µM (inactive)	> 100 µM (inactive)	> 100 µM (inactive)	> 100 µM (inactive)	> 100 µM (inactive)			
O=C1CC(c2ccccc2)NCN1 (centres undefined)	> 100 µM (inactive)	> 100 µM (inactive)	> 100 µM (inactive)	> 100 µM (inactive)	> 100 µM (inactive)	> 100 µM (inactive)	> 100 µM (inactive)	> 100 µM (inactive)		> 100 µM (inactive)	> 100 µM (inactive)	> 100 µM (inactive)	> 100 µM (inactive)	> 100 µM (inactive)	> 100 µM (inactive)	> 100 µM (inactive)				
O=C(N/C(=C\c1ccc(/C=C(\NC(=O)c2ccccc2)c2nc3cc(Cl)ccc3[nH]2)cc1)c1nc2cc(Cl)ccc2[nH]1)c1ccccc1	40.9 µM (inactive)		17.7 µM (inactive)	25.9 µM (inactive)	22.9 µM (inactive)	26.9 µM (inactive)	3.89 µM (inactive)	27.7 µM (inactive)	29.7 µM (inactive)	20.2 µM (inactive)	28.4 µM (inactive)	17.5 µM (inactive)	> 100 µM (inactive)	30.1 µM (inactive)	55 µM (inactive)	39.6 µM (inactive)	20.6 µM (inactive)			
COc1cc2c(cc1OC)[Se]c1cc(OC)c(OC)cc1[Se]2	> 10 µM (inactive)		> 10 µM (inactive)	80 µM (inactive)	> 10 µM (inactive)	> 10 µM (inactive)	> 100 µM (inactive)	> 10 µM (inactive)	> 10 µM (inactive)	> 10 µM (inactive)	18.3 µM (inactive)	> 10 µM (inactive)	> 10 µM (inactive)	> 10 µM (inactive)	> 10 µM (inactive)	> 10 µM (inactive)	90.8 µM (inactive)			
Cc1c(-c2ccccc2)[nH]c2ccc(Cl)cc2c1=O	< 0.01 µM (active)	23.2 µM (inactive)	17.6 µM (inactive)	27.9 µM (inactive)		34.7 µM (inactive)	22 µM (inactive)	23.4 µM (inactive)	0.314 µM (active)	21.8 µM (inactive)	30.8 µM (inactive)	40.6 µM (inactive)	21.7 µM (inactive)	> 100 µM (inactive)	75.2 µM (inactive)	22.9 µM (inactive)	22.2 µM (inactive)	16.4 µM (inactive)	17.4 µM (inactive)	19.4 µM (inactive)
COC(=O)[C@@]12C(=O)C=CC(=O)C1C1C(=CC2C)OC2OC3(CCCCC3)OC21 (some centres undefined)	18.2 µM (inactive)	14.5 µM (inactive)	15.9 µM (inactive)	20.5 µM (inactive)	13.5 µM (inactive)	17.8 µM (inactive)	6.11 µM (inactive)	19.4 µM (inactive)	18.8 µM (inactive)	16.7 µM (inactive)	18.9 µM (inactive)	16.9 µM (inactive)	18.6 µM (inactive)	17.7 µM (inactive)	19.3 µM (inactive)	17.7 µM (inactive)				
O=C1Nc2ccc([N+](=O)[O-])cc2/C1=N/NC(=S)Nc1ccc([N+](=O)[O-])cc1	21.6 µM (inactive)	20.9 µM (inactive)	20.4 µM (inactive)	22.2 µM (inactive)		19.6 µM (inactive)	35.9 µM (inactive)	19.9 µM (inactive)	19.7 µM (inactive)	19.3 µM (inactive)	19.8 µM (inactive)	26.5 µM (inactive)	22.4 µM (inactive)	32.3 µM (inactive)	39.2 µM (inactive)	23.7 µM (inactive)	29.4 µM (inactive)	18.4 µM (inactive)	17.9 µM (inactive)	19.1 µM (inactive)
CC1(C)CCC(C)(C)c2cc(NC(=O)c3ccc(C(=O)O)cc3)ccc21 [TAMIBAROTENE]	47.6 µM (inactive)	27.2 µM (inactive)	18.7 µM (inactive)	22.9 µM (inactive)		26.5 µM (inactive)	30.7 µM (inactive)	23.2 µM (inactive)	21.3 µM (inactive)	31.1 µM (inactive)	22.6 µM (inactive)	> 48.3 µM (inactive)	28 µM (inactive)	25.5 µM (inactive)	> 60.4 µM (inactive)	24.7 µM (inactive)	17.7 µM (inactive)	25.9 µM (inactive)	25.6 µM (inactive)	33.7 µM (inactive)
